In paper PMC3559828 (PLoS ONE, 2013):
Bridge positions count the residues as written; N and C are the ends. Peptide text beside a SMILES is read from it.

Tests used:
[1] = target: T1, Mouse α1β1γδ nAChR (Mus musculus, UniProt P02716+P04756+P09690+P20782); assay: cell-based
T1 construct: expressed in transfected cells; host or cells: Xenopus oocytes injected with cRNA

[2] = tested on: α9α10 nAChR; details: cited from earlier work
[3] = tested on: GABAB receptors; details: cited from earlier work

T1 sequence (P04756 21-457 limits assumed): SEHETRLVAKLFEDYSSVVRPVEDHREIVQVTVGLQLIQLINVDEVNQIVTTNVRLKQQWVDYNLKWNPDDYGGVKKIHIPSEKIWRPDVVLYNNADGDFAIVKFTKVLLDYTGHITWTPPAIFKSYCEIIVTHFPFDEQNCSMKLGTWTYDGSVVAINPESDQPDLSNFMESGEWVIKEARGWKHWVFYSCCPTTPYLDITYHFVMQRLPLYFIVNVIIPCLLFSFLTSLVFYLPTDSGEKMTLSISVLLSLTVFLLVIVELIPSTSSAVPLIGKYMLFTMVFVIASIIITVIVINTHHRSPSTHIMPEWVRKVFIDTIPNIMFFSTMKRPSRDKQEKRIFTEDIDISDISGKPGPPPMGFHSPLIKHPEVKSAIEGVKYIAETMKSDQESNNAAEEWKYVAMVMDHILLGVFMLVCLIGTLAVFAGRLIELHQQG
T1 sequence (P09690 24-501 partner limits assumed): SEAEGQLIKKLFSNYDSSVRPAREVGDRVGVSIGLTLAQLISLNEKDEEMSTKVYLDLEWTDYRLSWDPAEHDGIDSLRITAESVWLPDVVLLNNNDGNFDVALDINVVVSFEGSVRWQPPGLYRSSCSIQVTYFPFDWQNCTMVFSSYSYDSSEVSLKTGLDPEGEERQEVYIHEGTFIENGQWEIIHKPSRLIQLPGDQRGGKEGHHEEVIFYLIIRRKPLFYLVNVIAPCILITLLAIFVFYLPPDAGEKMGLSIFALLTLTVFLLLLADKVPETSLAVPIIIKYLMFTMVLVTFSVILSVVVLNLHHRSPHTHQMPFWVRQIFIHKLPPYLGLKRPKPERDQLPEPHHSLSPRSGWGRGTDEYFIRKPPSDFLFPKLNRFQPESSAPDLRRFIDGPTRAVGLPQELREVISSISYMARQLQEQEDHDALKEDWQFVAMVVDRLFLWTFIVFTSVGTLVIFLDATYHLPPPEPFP
T1 sequence (P02716 25-520 limits assumed): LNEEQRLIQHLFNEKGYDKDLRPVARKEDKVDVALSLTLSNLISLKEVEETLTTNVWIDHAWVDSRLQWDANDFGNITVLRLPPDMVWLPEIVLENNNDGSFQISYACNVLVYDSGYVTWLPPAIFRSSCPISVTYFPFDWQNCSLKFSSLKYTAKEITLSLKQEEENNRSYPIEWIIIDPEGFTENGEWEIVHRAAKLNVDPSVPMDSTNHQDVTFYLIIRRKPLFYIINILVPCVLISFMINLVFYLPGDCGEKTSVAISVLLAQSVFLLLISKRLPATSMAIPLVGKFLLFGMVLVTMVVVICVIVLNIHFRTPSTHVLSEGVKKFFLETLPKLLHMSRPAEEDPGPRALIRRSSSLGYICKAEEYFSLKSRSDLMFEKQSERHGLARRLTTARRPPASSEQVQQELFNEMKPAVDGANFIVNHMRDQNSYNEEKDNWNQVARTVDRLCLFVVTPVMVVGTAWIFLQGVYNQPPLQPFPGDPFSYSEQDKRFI
T1 sequence (P20782 21-493 limits assumed): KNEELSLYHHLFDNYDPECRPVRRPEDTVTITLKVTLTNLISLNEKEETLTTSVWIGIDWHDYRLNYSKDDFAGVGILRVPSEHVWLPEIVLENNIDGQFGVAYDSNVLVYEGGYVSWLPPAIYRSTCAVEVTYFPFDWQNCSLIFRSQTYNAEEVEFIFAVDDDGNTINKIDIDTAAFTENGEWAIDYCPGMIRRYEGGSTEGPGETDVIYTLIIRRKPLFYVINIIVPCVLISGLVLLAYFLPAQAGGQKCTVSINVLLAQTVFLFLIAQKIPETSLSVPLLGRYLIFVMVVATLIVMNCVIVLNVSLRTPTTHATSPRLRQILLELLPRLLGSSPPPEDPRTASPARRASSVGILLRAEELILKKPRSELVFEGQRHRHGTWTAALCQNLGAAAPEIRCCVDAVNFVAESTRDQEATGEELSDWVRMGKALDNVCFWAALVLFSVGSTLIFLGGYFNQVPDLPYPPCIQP

Row | Compound | IC50 [1] [µM] | IC50 [2] [µM] | activity at GABAB receptors [3]
1 | CC(C)C[C@@H]1NC(=O)[C@@H](NC(=O)[C@H](CCCNC(=N)N)NC(=O)[C@@H](N)C(C)C)CSSC[C@@H](C(=O)N[C@H]2CSSC[C@@H](C(=O)N[C@H](C(=O)N[C@@H](Cc3ccc(O)cc3)C(=O)N[C@@H](Cc3ccc(O)cc3)C(=O)N[C@H](C(=O)N[C@@H](CCC(N)=O)C(=O)N[C@@H](CO)C(=O)N[C@@H](CCCNC(=N)N)C(=O)N[C@@H](CCC(=O)O)C(=O)O)[C@@H](C)O)C(C)C)NC(=O)[C@H](CCCNC(=N)N)NC(=O)[C@H](CO)NC(=O)[C@H](Cc3c[nH]cn3)NC(=O)[C@H](CCCNC(=N)N)NC(=O)[C@H](C)NC(=O)[C@H](Cc3ccccc3)NC(=O)[C@H](CO)NC(=O)[C@@H]3CCCN3C(=O)CNC(=O)[C@H](CCCCN)NC(=O)[C@H](CCC(N)=O)NC2=O)NC(=O)[C@@H]2CCCN2C(=O)[C@@H]2CCCN2C(=O)[C@H](CCCNC(=N)N)NC(=O)[C@H](Cc2ccccc2)NC(=O)[C@H](CC(C)C)NC(=O)[C@H](CCCCN)NC(=O)[C@H](CC(N)=O)NC(=O)[C@@H]2CCCN2C(=O)[C@H](CCC(N)=O)NC(=O)[C@H](C)NC(=O)CNC(=O)[C@H](CO)NC(=O)[C@H](CCCCN)NC(=O)[C@H](CCC(=O)O)NC1=O [αB-VxXXIVA [1], [2]] (H-VRCLEKSGAQPNKLFRPPCCQKGPSFARHSRCVYYTQSRE-OH; disulfide 3-19, 20-32) | 6.6 |  | 
2 | α-conotoxin RgIA |  | 0.019 | activate GABAB receptors
